Results from patent US20150065416A1, “NOVEL DRUG COMBINATION” (FAB PHARMA SAS, priority 2013, published 2015).
Values after ≈ are worked out from the molar mass of the structure shown. Like-named read-outs stand apart in the source and are kept apart here.

Legend:
A. baumannii isolates [1] = assay: Checkerboard testing (compound (I)/antibacterial agent interaction, FIC index); format: cell-based, Acinetobacter baumannii; details: Acinetobacter baumannii, read-out: MIC
Procedure: Checkerboard interaction studies were performed using 5 isolates from each of the sub-groups and time kill studies were performed using 3 isolates from each sub-group.
Checkerboards (20 isolates, 5 per sub-group) were prepared so as to contain multiple concentrations of compound (I) with different additional antibacterial agents (amikacin, gentamicin, colistin, meropenem and tobramycin) as follows:
Serial two-fold dilutions of the antimicrobial agents alone or in combination in wells of 96 well microtiter plates were inoculated with the appropriate inoculum so that each well contained approximately 4-5×10^4 CFU/ml. Plates were incubated at 35° C. for 16-20 hours. Combination concentrations were tested between 0.25×MIC and 2×MIC. Growth and sterility controls were also included in each plate.
Synergy, indifference and antagonism were calculated based upon the use of the fractional inhibitory concentration (FIC) indices as described by Pillai, Moellering & Eliopoulos (2005) whereby:
Synergism=FIC index of ≦0.5 Indifference=FIC index >1 but ≦4 Additivity >0.5 to 1 Antagonism=FIC index of >4
Checkerboard studies were carried out as described in General Procedures using twenty different A. baumannii isolates with 5 per sub-group of: susceptible, amikacin-resistant, colistin-resistant and meropenem-resistant.

A. baumannii isolates [2] = assay: Individual antimicrobial susceptibility testing (MIC, broth microdilution, CLSI); format: cell-based, Acinetobacter baumannii; details: for MIC50 / MIC90: Acinetobacter baumannii
Procedure: In the antimicrobial susceptibility testing 77 isolates of A. baumannii (from 2010) in the following sub-groups were tested: • 22 isolates generally susceptible to antimicrobial agents (“Sus”) • 20 carbapenem-resistant isolates (e.g. “MPM-R”) • 20 aminoglycoside-resistant isolates (e.g. “AMK-R”) • 15 colistin-resistant isolates. (e.g. “COL-R”)
Minimum inhibitory concentration (MIC) endpoints were determined by broth microdilution according to CLSI guidelines (CLSI, M7-A8 & M100-S22, 2012). Panels were prepared at IHMA using cation-adjusted Mueller-Hinton broth. Colonies were taken directly from a second-pass culture plate and prepared to a suspension equivalent of the 0.5 McFarland standard using normal saline.
Testing was carried out as described in the General Procedures to determine minimum inhibitory concentration (MIC) end points for compound (I), amikacin, colistin, gentamicin, meropenem and tobramycin, for 77 A. baumannii isolates. Under the “MIC (μg/ml)” heading, the first column (Range) indicates the MIC end points for the particular number (N) of isolates tested, the second column (50%) provides an estimate of the concentration that inhibits 50% (MIC50) of bacterial isolates tested, and the third column (90%) provides an estimate of the concentration that inhibits 90% of the bacterial isolates tested.

[3] = Amikacin-resistant isolates, N=20
[4] = Colistin-resistant isolates, N=15
[5] = Meropenem-resistant isolates, N=20

MIC (A. baumannii isolates [1]; A. baumannii 441142, colistin-resistant): > 1020 µg/mL | MIC (A. baumannii isolates [1]; A. baumannii 441160, colistin-resistant): > 1020 µg/mL | MIC (A. baumannii isolates [1]; A. baumannii 463996, colistin-resistant): 2 µg/mL | MIC (A. baumannii isolates [1]; A. baumannii 466936, colistin-resistant): 64 µg/mL | MIC (A. baumannii isolates [1]; A. baumannii 517303, colistin-resistant): 256 µg/mL | MIC (A. baumannii isolates [1]; A. baumannii 618649, meropenem-resistant): 1 µg/mL | MIC (A. baumannii isolates [1]; A. baumannii 625917, meropenem-resistant): 1 µg/mL | MIC (A. baumannii isolates [1]; A. baumannii 628760, susceptible): 2 µg/mL | MIC (A. baumannii isolates [1]; A. baumannii 637723, amikacin-resistant): 2 µg/mL | MIC (A. baumannii isolates [1]; A. baumannii 638115, amikacin-resistant): 2 µg/mL | MIC (A. baumannii isolates [1]; A. baumannii 650216, meropenem-resistant): 1 µg/mL | MIC (A. baumannii isolates [1]; A. baumannii 655932, amikacin-resistant): 2 µg/mL | MIC (A. baumannii isolates [1]; A. baumannii 661954, amikacin-resistant): 1 µg/mL | MIC (A. baumannii isolates [1]; A. baumannii 667848, meropenem-resistant): 1 µg/mL | MIC (A. baumannii isolates [1]; A. baumannii 668116, susceptible): 1 µg/mL | MIC (A. baumannii isolates [1]; A. baumannii 668239, amikacin-resistant): 4 µg/mL | MIC (A. baumannii isolates [1]; A. baumannii 670348, susceptible): 2 µg/mL | MIC (A. baumannii isolates [1]; A. baumannii 671050, meropenem-resistant): 4 µg/mL | MIC (A. baumannii isolates [1]; A. baumannii 672190, susceptible): 1 µg/mL | MIC (A. baumannii isolates [1]; A. baumannii 674340, susceptible): 1 µg/mL | MIC50 (A. baumannii isolates [2]; All isolates, N=77): 2 µg/mL (≈ 4.28 µM) | MIC90 (A. baumannii isolates [2]; All isolates, N=77): > 32 µg/mL | MIC50 (A. baumannii isolates [2]; [3]): > 32 µg/mL | MIC90 (A. baumannii isolates [2]; [3]): > 32 µg/mL | MIC50 (A. baumannii isolates [2]; [4]): 32 µg/mL (≈ 68.4 µM) | MIC90 (A. baumannii isolates [2]; [4]): > 32 µg/mL | MIC50 (A. baumannii isolates [2]; [5]): 4 µg/mL (≈ 8.56 µM) | MIC90 (A. baumannii isolates [2]; [5]): > 32 µg/mL | MIC50 (A. baumannii isolates [2]; Susceptible isolates, N=22): 1 µg/mL (≈ 2.14 µM) | MIC90 (A. baumannii isolates [2]; Susceptible isolates, N=22): 2 µg/mL (≈ 4.28 µM) | MIC Range (A. baumannii isolates [2]; Susceptible isolates, N=22): 0.12 to 2 µg/mL
SMILES: NC[C@H]1O[C@H](O[C@H]2[C@H](O)[C@@H](O[C@H]3O[C@H](CO)[C@@H](O)[C@H](N)[C@H]3O)[C@H](N)C[C@@H]2N)[C@H](N)C[C@@H]1O [tobramycin]
